Results as given in patent CN101125142A, “青蒿素在制备抗肿瘤多药耐药药物中的应用” (DONGZHIMEN HOSPITAL AFFILIATED TO BEIJING UNIVERSITY OF …, priority 2007, dated 2008).
Where “and” joins values, the source holds several entries; their conditions need not be identical. Equal entries are not always repeated. Entries after “also recorded” stand apart in the source; their conditions may differ. Where two headings read alike, the source gives them in different places.

Experiments:
[1] = system: tumour multidrug resistance (肿瘤多药耐药); settings: background; cited from earlier work
KBV200 cells (KBV200细胞) [2] = settings: KBV200 cell line; cited from earlier work
KBV200 cells (KBV200细胞) [3] = assay: MTT cytotoxicity test: growth inhibition of KBV200 cells by single agents; format: cell-based, human; settings: for IC50: KBv200
KBV200 cells (KBV200细胞) [4] = assay: Reversal of resistance: MTT growth inhibition of KBV200 cells by agent combined with VCR; format: cell-based, human

In the case of COc1cc2c(cc1OC)[C@@H](Cc1ccc(Oc3cc(C[C@@H]4c5cc(OC)c(OC)cc5CCN4C)ccc3O)cc1)N(C)CC2 [蝙蝠葛碱], the reversal fold [1] is given as 8.2-13.0.

For COc1cc2c(c(OC)c1OC)-c1ccc(OC)c(=O)cc1[C@@H](NC(C)=O)CC2 [秋水仙素], the fold resistance (KBV200 cells (KBV200细胞) [2]) is given as about 15 fold.

For CC1CCC2C(C)C(O)OC3OC4(C)CCC1C32OO4 (stereo not drawn) [二氢青蒿素], the IC50 (KBV200 cells (KBV200细胞) [3]; Homo sapiens, mass concentration in brackets beside the μmol/l value) was 3.18 µg/mL, the IC50 (KBV200 cells (KBV200细胞) [3]; Homo sapiens, single agent, 72 h (discussion)) was 11.2 µM and the “inhibitory effect on tumour cells compared with another agent” value (KBV200 cells (KBV200细胞) [3]; artesunate versus artemisinin, dihydroartemisinin versus artesunate) was “较青蒿琥酯次之”. For the same molecule, the “inhibition rate (IR)” value (KBV200 cells (KBV200细胞) [3]; dihydroartemisinin 0.156 μmol/l, 72 h) was 0.680±0.84%, the “inhibition rate (IR)” value (KBV200 cells (KBV200细胞) [3]; dihydroartemisinin 0.313 μmol/l, 72 h) was 0.940±3.87% and the “inhibition rate (IR)” value (KBV200 cells (KBV200细胞) [3]; dihydroartemisinin 1.250 μmol/l, 72 h) was < 20% and 10.00±3.31%. The “inhibition rate (IR)” value (KBV200 cells (KBV200细胞) [3]; dihydroartemisinin 2.500 μmol/l, 72 h) was < 20% and 18.50±4.88%, the “inhibition rate (IR)” value (KBV200 cells (KBV200细胞) [3]; dihydroartemisinin 5.000 μmol/l, 72 h) was 32.30±10.1% and the “inhibition rate (IR)” value (KBV200 cells (KBV200细胞) [3]; dihydroartemisinin 10.00 μmol/l, 72 h) was 48.69±6.53%. For the same molecule, the “inhibition rate (IR)” value (KBV200 cells (KBV200细胞) [3]; dihydroartemisinin 20.00 μmol/l, 72 h) was 71.98±7.16%, the “inhibition rate (IR)” value (KBV200 cells (KBV200细胞) [3]; dihydroartemisinin 40.00 μmol/l, 72 h) was 89.99±4.39% and the inhibition rate (KBV200 cells (KBV200细胞) [3]; dihydroartemisinin above 11.16 umol/l) was over 50%. The “inhibitory effect on KBV200 cells” value (KBV200 cells (KBV200细胞) [3]; dihydroartemisinin below 0.313 umol/l) was “几乎无抑制效应”, the inhibition rate (KBV200 cells (KBV200细胞) [3]; dihydroartemisinin below 2.5 umol/l) was under 20% and the “inhibitory effect on KBV200 cells” value (KBV200 cells (KBV200细胞) [3]; dihydroartemisinin below 10 umol/l) was “抑制效应并不明显”. For the same molecule, the “inhibitory effect on KBV200 cells” value (KBV200 cells (KBV200细胞) [3]; overall statement) was “大浓度具有一定的抑制KBV200细胞增殖效应; also recorded: 均有一定抑制效应”, the “inhibition rate of KBV200 cells on combination with VCR” value (KBV200 cells (KBV200细胞) [4]; VCR concentration constant, three agent concentrations) was “略有提高” and the “reversal of vincristine resistance / sensitisation of KBV200 to VCR” value (KBV200 cells (KBV200细胞) [4]; agent combined with VCR) was “有一定的增敏作用”. The “reversal fold (RI)” value (KBV200 cells (KBV200细胞) [4]; dihydroartemisinin 0.625 umol/l with VCR) was 1.35, the “reversal fold (RI)” value (KBV200 cells (KBV200细胞) [4]; dihydroartemisinin 1.25 umol/l with VCR) was 1.515 and the “reversal fold (RI)” value (KBV200 cells (KBV200细胞) [4]; dihydroartemisinin 2.5 umol/l with VCR) was 1.74.

For COc1cccc2c1C(=O)c1c(O)c3c(c(O)c1C2=O)C[C@@](O)(C(=O)CO)C[C@@H]3O[C@H]1C[C@H](N)[C@H](O)[C@H](C)O1 [阿霉素], the fold resistance (KBV200 cells (KBV200细胞) [2]) is listed as about 15 fold.

For 人参皂甙Rb1, the reversal fold [1] is given as 8.2-13.0.

Molecule CC[C@]1(O)C[C@H]2CN(CCc3c([nH]c4ccccc34)[C@@](C(=O)OC)(c3cc4c(cc3OC)N(C=O)[C@H]3[C@@](O)(C(=O)OC)[C@H](OC(C)=O)[C@]5(CC)C=CCN6CC[C@]43[C@@H]65)C2)C1 [VCR, 长春新碱] has an inhibition rate (KBV200 cells (KBV200细胞) [3]) of under 50%, an inhibition at 0.125 µg/mL (KBV200 cells (KBV200细胞) [3]; Homo sapiens, KBv200, 72 h, VCR 0.125 μg/ml, 72 h, read-out: inhibition rate (IR)) of 6.51 ± 2.59% and an inhibition at 0.25 µg/mL (KBV200 cells (KBV200细胞) [3]; Homo sapiens, KBv200, 72 h, VCR 0.250 μg/ml, 72 h, read-out: inhibition rate (IR)) of 9.06 ± 3.13%. For the same molecule, the inhibition at 0.5 µg/mL (KBV200 cells (KBV200细胞) [3]; Homo sapiens, KBv200, 72 h, VCR 0.500 μg/ml, 72 h, read-out: inhibition rate (IR)) was 13.9 ± 3.54%, the inhibition at 1 µg/mL (KBV200 cells (KBV200细胞) [3]; Homo sapiens, KBv200, 72 h, VCR 1.000 μg/ml, 72 h, read-out: inhibition rate (IR)) was 25.6 ± 1.71% and the inhibition at 2 µg/mL (KBV200 cells (KBV200细胞) [3]; Homo sapiens, KBv200, 72 h, VCR 2.000 μg/ml, 72 h, read-out: inhibition rate (IR)) was 66.3 ± 0.01%. The IC50 (KBV200 cells (KBV200细胞) [3]; Homo sapiens, VCR alone, 72 h) was 1.58 ± 1.22 µg/mL, the “inhibition rate (IR)” value (KBV200 cells (KBV200细胞) [3]; VCR 0.500 μg/ml, 72 h) was 13.96±3.54% and the “inhibition rate (IR)” value (KBV200 cells (KBV200细胞) [3]; VCR 1.000 μg/ml, 72 h) was 25.65±1.71%. The “inhibition rate (IR)” value (KBV200 cells (KBV200细胞) [3]; VCR 2.000 μg/ml, 72 h) was 66.31±0.01%, the “inhibitory effect on KBV200 cells” value (KBV200 cells (KBV200细胞) [3]; VCR above 1.58 μg/ml) was “具有较为明显的抑制效应” and the “inhibitory effect on KBV200 cells” value (KBV200 cells (KBV200细胞) [3]; VCR below 1 μg/ml) was “抑制效应并不明显”. For the same molecule, the fold resistance (KBV200 cells (KBV200细胞) [2]) was about 175 fold.

In the case of O=c1[nH]cc(F)c(=O)[nH]1 [5-氟脲嘧啶], the “resistance” value (KBV200 cells (KBV200细胞) [2]) is listed as “耐药性较低”.
